{
  "source": "patent US12029808B2",
  "about": "“Kit and method for dyeing keratinous material by means of aminosilicone and a chromophoric compound” (Henkel AG & Co. KGaA, priority 2019, dated 2024)",
  "origin": "cited, not measured here",
  "data": [
    {"settings": "25° C.", "values": [
      {"molecule": "CCN(Cc1cccc(S(=O)(=O)[O-])c1)c1ccc(C(=C2C=CC(=[N+](CC)Cc3cccc(S(=O)(=O)[O-])c3)C=C2)c2ccccc2S(=O)(=O)[O-])cc1.[Na+].[Na+]", "note": "[Acid Blue 9]", "solubility in water": "more than 20 wt. %"},
      {"molecule": "O=S(=O)([O-])c1ccc(N=Nc2c(O)ccc3ccccc23)cc1.[Na+]", "note": "[Acid Orange 7, sodium salt of 4-[(2-hydroxy-1-naphthyl)azo]benzene sulphonate]", "solubility in water": "more than 7 g/L"},
      {"molecule": "Nc1cc(S(=O)(=O)[O-])cc2cc(S(=O)(=O)[O-])c(N=Nc3ccccc3)c(O)c12.[Na+].[Na+]", "note": "[Acid Red 33, diantrium salt of 5-amino-4-hydroxy-3-(phenylazo)-naphthalene-2,7-disulphonate]", "solubility in water": "2.5 mg/mL"},
      {"molecule": "O=C([O-])c1c(Cl)c(Cl)c(Cl)c(Cl)c1-c1c2c(Br)cc(=O)c(Br)c-2oc2c(Br)c(O)cc(Br)c12.O=C([O-])c1c(Cl)c(Cl)c(Cl)c(Cl)c1-c1c2c(Br)cc(=O)c(Br)c-2oc2c(Br)c(O)cc(Br)c12.[Na+].[Na+]", "note": "[Acid Red 92, disodium salt of 3,4,5,6-tetrachloro-2-(1,4,5,8-tetrabromo-6-hydroxy-3-oxoxanthen-9-yl)benzoic acid]", "solubility in water": "greater than 10 g/L"},
      {"molecule": "O=C([O-])C1=NN(c2ccc(S(=O)(=O)[O-])cc2)C(=O)C1N=Nc1ccc(S(=O)(=O)[O-])cc1.[Na+].[Na+].[Na+]", "note": "(stereo not drawn) [Acid Yellow 23, trisodium salt of 4,5-dihydro-5-oxo-1-(4-sulfophenyl)-4-((4-sulfophenyl)azo)-1H-pyrazole-3-carboxylic acid]", "solubility in water (in words)": "highly soluble in water"},
      {"molecule": "mixture of the sodium salts of mono- and sisulfonic acids of 2-(2-quinolyl)-1H-indene-1,3(2H)-dione [Acid Yellow 3]", "solubility in water": "20 mg/mL"}
    ]}
  ]
}
